Counter-ions that a name gives are not always drawn.
Assays:
[1] = test system: serotonin 1A receptor of medulla oblongata; settings: through serotonin 1A receptor of medulla oblongata; cited from earlier work
[2] = test system: serotonin 1A receptor; settings: background statement; cited from earlier work
[3] = biological target: T1, serotonin 1A (5-HT1A) receptor (Rattus norvegicus, UniProt P19327); assay: Affinity for serotonin 1A (5-HT1A) receptor, 3H-8-OH-DPAT binding test; settings: rat hippocampus, 0.2 nM 3H-8-OH-DPAT, pH 7.4, 37° C., 10 min
T1 sequence (P19327 1-422): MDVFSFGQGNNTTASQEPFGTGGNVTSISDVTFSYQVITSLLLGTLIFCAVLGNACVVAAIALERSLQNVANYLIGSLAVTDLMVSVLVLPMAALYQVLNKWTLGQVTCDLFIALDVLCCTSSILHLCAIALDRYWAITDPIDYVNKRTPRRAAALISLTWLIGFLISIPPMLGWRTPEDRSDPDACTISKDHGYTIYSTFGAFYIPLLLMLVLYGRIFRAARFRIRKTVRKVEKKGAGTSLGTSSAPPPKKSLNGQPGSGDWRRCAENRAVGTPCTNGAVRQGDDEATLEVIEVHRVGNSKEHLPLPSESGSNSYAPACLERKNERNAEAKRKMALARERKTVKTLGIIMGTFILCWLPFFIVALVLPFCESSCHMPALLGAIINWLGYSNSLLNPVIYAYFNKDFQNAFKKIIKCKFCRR
Procedure: Affinity for serotonin 1A (5-HT1A) receptor [^3 H-8-Hydroxy-2-dipropylaminotetralin (^3 H-8-OH-DPAT) binding test]
Preparation of crude synaptosome fraction and binding assay were conducted in accordance with the method reported in Journal of Neurochemistry, vol. 44, page 1685, 1985 by Hall et al. Freezed hippocampus dissected out from rats were homogenized in 40 volumes of ice-cold 50 mM Tris-HCl buffer (pH 7.4) and the suspension was centrifuged at 500×g for 10 minutes at 0° C. The supernatant was centrifuged at 40,000×g for 20 minutes at 0° C. and the resulting pellet was homogenized in 40 volumes of the above buffer and incubated at 37° C. for 10 minutes. After completion of reaction, the suspension was centrifuged at 40,000×g for 20 minutes at 0° C. The resulting pellet was washed twice by resuspension in 40 volumes of the above buffer and centrifugation, and finally suspended in 60 volumes of ice-cold 50 mM Tris-HCl buffer (pH 7.4) containing 1 mM manganese chloride for use in the next assay.
To the aliquots (900 μl) of synaptosome membranes solution were added 50 μl of tritiated 8-OH-DPAT solution at the terminal concentration of 0.2 nM and 50 μl of test compound solution or 50 μl of its medium, and incubated at 37° C. for 10 minutes. Then, to the mixture was added 5 ml of ice-cold 50 mM Tris-HCl buffer (pH 7.4), rapidly vacuum-filtered through Whatman GF/B filters and washed twice with 5 ml of the same buffer. The radioactivity of the residue remaining on the filters was measured by liquid scintillation counter. Nonspecific binding was determined under the presence of 10^-5 M serotonin (5-HT). 50% Inhibition concentration (IC50) of the test compound was graphically determined and the inhibition constant (Ki value) was calculated.

[4] = test system: Wistar rats; assay: Anxiolytic effect (Vogel type conflict test); format: in vivo; settings: Rattus norvegicus, po; orally 1 hour before test; lowest dose significantly different from 0.5% MC control, P<0.05; read-out: Anxiolytic effect MED (minimum effective dose)
Procedure: Anxiolytic effect (Vogel type conflict test) The test was conducted according to the method of Vogel et al. Wistar rats deprived of water for 72 hours before the test were used. The rats were placed in a plexiglas conflict test box (light compartment: 38×38×20 cm, dark compartment: 10×10×20 cm). A water bottle with a stainless steel spout was fitted to the middle of the outside, so that the spout extended 3 cm into the box at a height of 10 cm above the grid floor. A drinkometer circuit (Ohara Inc., Nihon Koden) was connected with the spout and the number of licks were counted. The rat was placed into the apparatus where an electric shock (0.2-0.3 mA, 0.3 sec) was given once every 20th lick. After the rat received first electric shock, the number of shocks were recorded during the subsequent 3 min. test period. The test compounds were administered orally 1 hour before the test. The minimum effective dose (MED) was defined as the lowest dose producing a statistically significant difference between 0.5% MC-treated (control) and test drug treated punished responses (One-way ANOVA test; P<0.05).

[5] = biological target: T2, serotonin 2 (5-HT2) receptor (Rattus norvegicus, UniProt P14842); assay: Affinity for serotonin 2 (5-HT2) receptor, 3H-Ketanserin binding test; settings: rat cerebral cortex, 0.2 nM 3H-Ketanserin, pH 7.7, 37° C., 20 min
T2 construct: Freezed cerebral cortex dissected out from rats were homogenized; from tissue; host or cells: rat cerebral cortex, crude synaptosome fraction
Procedure: Affinity for serotonin 2 (5-HT2) receptor (^3 H-Ketanserin binding test)
Preparation of crude synaptosome fraction and binding assay were conducted according to the method reported in Molecular Pharmacology, vol. 21, page 301, 1981 by Leysen et al.
Freezed cerebral cortex dissected out from rats were homogenized in 30 volumes of ice-cold 0.32 M sucrose solution and the suspension was centrifuged at 1000×g for 10 minutes at 10° C. The supernatant was centrifuged at 40,000×g for 20 minutes at 0° C. and the resulting pellet was homogenized in 30 volumes of ice-cold 50 mM Tris-HCl buffer (pH 7.7), and incubated at 37° C. for 10 minutes. The suspension was centrifuged at 40,000×g for 20 minutes at 0° C. again. The resulting pellet was homogenized in 100 volumes of the above buffer and provided as synaptosome membranes solution for the next assay.
To the aliquots (900 μl) of synaptosome membranes solution were added 50 μl of ^3 H-Ketanserin solution at the terminal concentration of 0.2 nM and 50 μl of test compound solution or 50 μl of its medium, and incubated at 37° C. for 20 minutes. After completion of the reaction, the mixture was rapidly vacuum-filtered through Whatman GF/B filters. The filters were washed three times with 5 ml of the above buffer, and then the radioactivity of the residue remaining on the filters was measured by liquid scintillation counter. Nonspecific binding was determined under the presence of 10 μM of mianserin. 50% Inhibition concentration (IC50) of the test compound was graphically determined and the inhibition constant (Ki value) was calculated.

[6] = biological target: dopamine 2 (D2) receptor (Rattus norvegicus, UniProt P61169); assay: Affinity for dopamine 2 (D2) receptor, 3H-Spiperone binding test; settings: rat corpus striatum, 0.2 nM 3H-Spiperone, pH 7.1, 37° C., 20 min
[7] = test system: serotonin 1A receptor; settings: by an interaction with serotonin 1A receptor; cited from earlier work
[8] = test system: benzodiazepine receptor; settings: background statement; cited from earlier work

dopamine 2 (D2) receptor, sequence (P61169 whole entry): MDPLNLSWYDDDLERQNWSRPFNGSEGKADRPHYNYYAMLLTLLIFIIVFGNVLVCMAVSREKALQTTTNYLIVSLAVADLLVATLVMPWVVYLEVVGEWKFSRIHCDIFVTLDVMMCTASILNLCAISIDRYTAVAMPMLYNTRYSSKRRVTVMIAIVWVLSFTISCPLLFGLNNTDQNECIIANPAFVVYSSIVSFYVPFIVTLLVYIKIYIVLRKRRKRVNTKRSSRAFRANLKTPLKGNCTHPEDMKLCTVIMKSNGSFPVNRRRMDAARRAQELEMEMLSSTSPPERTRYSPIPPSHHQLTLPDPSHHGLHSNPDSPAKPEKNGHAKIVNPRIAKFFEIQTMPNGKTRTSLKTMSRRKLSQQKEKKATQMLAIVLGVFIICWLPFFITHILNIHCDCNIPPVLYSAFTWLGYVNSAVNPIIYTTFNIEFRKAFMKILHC
T2 sequence (P14842 whole entry): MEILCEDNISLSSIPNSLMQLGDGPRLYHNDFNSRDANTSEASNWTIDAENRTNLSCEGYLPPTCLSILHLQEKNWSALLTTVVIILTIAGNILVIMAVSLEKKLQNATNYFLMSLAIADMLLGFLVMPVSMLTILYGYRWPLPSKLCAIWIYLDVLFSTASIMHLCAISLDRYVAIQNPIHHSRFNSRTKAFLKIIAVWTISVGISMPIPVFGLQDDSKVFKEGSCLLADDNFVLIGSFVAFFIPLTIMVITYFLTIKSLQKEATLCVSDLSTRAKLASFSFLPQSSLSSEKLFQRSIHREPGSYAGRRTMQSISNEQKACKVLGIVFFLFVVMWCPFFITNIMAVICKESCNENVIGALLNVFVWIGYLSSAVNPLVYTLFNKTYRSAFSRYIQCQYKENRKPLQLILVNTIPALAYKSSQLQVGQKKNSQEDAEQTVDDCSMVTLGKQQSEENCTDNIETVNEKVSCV

SMILES | Ki [3] [nM] | Ki [5] [nM] | Ki [6] [nM] | effect on blood pressure [1] | affinity for serotonin 1A receptor [2] | minimal effective dose [4] [mg/kg] | antianxietic action [7] | binding to benzodiazepine receptor [8]
CCCN(CCC)C1CCc2cccc(O)c2C1 (centres unmarked) [8-hydroxy-2-dipropylaminotetralin] |  |  |  | lowers blood pressure | high affinity |  |  | 
CC(=O)c1cc2c(s1)CCCN(CCCCN1CCN(c3ncccn3)CC1)C2=O [13 (maleate)] | 1.6 | 1400 | 190 |  |  | 1 |  | 
Cc1cc2c(s1)CCCN(CCCCN1CCN(c3ncccn3)CC1)C2=O [15 (hydrochloride)] | 2.1 | 1500 | 140 |  |  | 2.5 |  | 
CCc1cc2c(s1)CCCN(CCCCN1CCN(c3ncccn3)CC1)C2=O.O=C(O)/C=C/C(=O)O [Example 46, 2-ethyl-5-[4-(4-(2-pyrimidinyl)-1-piperazinyl)butyl]-5,6,7,8-tetrahydro-4H-thieno[3,2-c]azepin-4-one fumarate] | 1.3 | 990 | 78 |  |  | ≤ 1 |  | 
CC(O)c1cc2c(s1)CCCN(CCCCN1CCN(c3ncccn3)CC1)C2=O.O=C(O)/C=C\C(=O)O (centres unmarked) [Example 155, 2-(1-Hydroxyethyl)-5-[4-(4-(2-pyrimidinyl)-1-piperazinyl)butyl]-5,6,7,8-tetrahydro-4H-thieno[3,2-c]azepin-4-one maleate] | 0.81 | 2100 | 170 |  |  | 2.5 |  | 
O=C1CC2(CCCC2)CC(=O)N1CCCCN1CCN(c2ncccn2)CC1 [buspirone] |  |  |  |  | high affinity |  | exhibits antianxietic action | not to bind

Further lines, with some results ahead:

Ki [3] [nM] | Ki [5] [nM] | Ki [6] [nM] | SMILES | effect on blood pressure [1] | affinity for serotonin 1A receptor [2] | minimal effective dose [4] [mg/kg] | antianxietic action [7] | binding to benzodiazepine receptor [8]
0.89 | 900 | 100 | O=C1c2cc(Br)sc2CCCN1CCCCN1CCN(c2ncccn2)CC1 [Example 11, 2-Bromo-5-[4-(4-(2-pyrimidinyl)-1l-piperazinyl)butyl]-5,6,7,8-tetrahydro-4H-thieno[3,2-c]azepin-4-one fumarate] |  |  |  |  | 
5.2 | 1800 | 1800 | O=C1c2ccsc2SCCN1CCCCN1CCN(c2ncccn2)CC1 [Example 103, 2,3-dihydro-4-[4-(4-(2-pyrimidinyl)-1-piperazinyl)butyl]thieno[3,2-f]-1,4-thiazepin-5( (4H)-one fumarate] |  |  |  |  | 
1.5 | 990 | 120 | O=C1c2cc(Br)sc2SCCN1CCCCN1CCN(c2ncccn2)CC1 [Example 107, 7-bromo-2,3-dihydro-4-[4-(4-(2-pyrimidinyl)-1-piperazinyl)butyl]thieno[3,2-f]-1,4-thiazepin-5(4H)-one fumarate 1/2 hydrate] |  |  |  |  | 
4.1 | 1800 | 270 | CC(=O)c1cc2c(s1)SCCN(CCCCN1CCN(c3ncccn3)CC1)C2=O [Example 117, 7-acetyl-2,3-dihydro-4-[4-(4-(2-pyrimidinyl)-1-piperazinyl)butyl]thieno[3,2-f]-1,4-thiazepin-5(4H)-one] |  |  | 5 |  | 
1.4 | 1100 | 150 | CCc1cc2c(s1)SCCN(CCCCN1CCN(c3ncccn3)CC1)C2=O [Example 121, 7-ethyl-2,3-dihydro-4-[4-(4-(2-pyrimidinyl)-1-piperazinyl)thieno[3,2-f]-1,4-thiazepin-5(4H)-one hydrochloride 3/2 hydrate] |  |  |  |  | 
0.15 | 1200 | 6.2 | Cc1cc2c(s1)CCCN(CCCCNCC1COc3ccccc3O1)C2=O.Cl (centres unmarked) [Example 163, 5-[4-((1,4-Benzodioxan-2-yl)methylamino)butyl]-2-methyl-5,6,7,8-tetrahydro-4H-thieno[3,2-c]azepin-4-one hydrochloride] |  |  | 2.5 |  | 

Source: US5141930A, “Fused thiophene compounds and uses thereof” (Yoshitomi Pharmaceutical Industries, Ltd., priority 1990, dated 1992)
